Several values for one entry are separate records, joined by “and”; a condition that tells them apart may be missing. Equal entries are not always repeated. Structures can show the parent of a compound that is named as a salt. Where two headings read alike, the source gives them in different places.
Assays:
cough pulses [1] = test: Oral citric acid aerosol cough test in guinea pigs, time course 1-24 h, Comparative test 6; assay type: in vivo; conditions: for Cough pulses during 8 minutes, percent of control value, after 1 h / Cough pulses during 8 minutes, percent of control value, after 3 h / Cough pulses during 8 minutes, percent of control value, after 5 h / Cough pulses during 8 minutes, percent of control value, after 24 h: codeine phosphate 75, d,l-glaucine hydrobromide 150, hydrochloride 135, embonate 378 mg/kg
Description: In a further comparative test, 40 female guinea pigs with body weights between 230 and 500 g were divided into 4 groups and each animal was again subjected to the action of a 20% citric acid aerosol for 8 minutes. From the control values thus obtained the average control value for each group was calculated. Each animal of each group was then given, by means of a throat probe, either 75 mg/kg of codeine phosphate, or 135 mg/kg of d,l-glaucine hydrochloride, or 150 mg/kg of d,1-glaucine hydrobromide, or 378 mg/kg of d,l-glaucine embonate. These doses are the equimolar quantities, based on glaucine. After a period of 1, or 3, or 5, or 24 hours each animal was again subjected for 8 minutes to the action of the citric acid aerosol, and the number of cough pulses during this period was recorded. The values thus obtained were compared with the control values and the percent deviation of the average measured value for each group, from the average control value, was calculated.

mice = test: Toxicity (LD50) in mice by the Wilcox method, Comparative test 7; assay type: in vivo; conditions: hydrobromide
Description: (§1) The toxicity thresholds of codeine phosphate, of d-glaucine hydrobromide and of d,l-glaucine hydrobromide were determined in mice by the Wilcox method. […] The toxicities of codeine phosphate and d,l-glaucine hydrobromide are about equal.

[2] = as above; assay type: in vivo; conditions: mouse, in vivo
Description: as §1

cough pulses [3] = test: Citric acid aerosol cough test in guinea pigs, subcutaneous, 30 min (method of Friebel and Reichle), Comparative test 1; assay type: in vivo; conditions: s.c.; for ED50: Cavia porcellus, sc, 0.5 h, 30 min after administering, 20% citric acid aerosol, 8 min
Description: In order to compare the anti-cough effectiveness of codeine phosphate with the effectiveness of the different isomers of glaucine hydrobromide, the testing method of Friebel and Reichle was used. 60 guinea pigs with weights between 200 and 300 g were divided up into ten groups of different sizes. Before administering the active substance, each animal was subjected, on the same day as the day of test with the active substance, for a period of 8 minutes to an aerosol of 20% citric acid, the animal being confined in a chamber at constant air pressure. During this control test the number of cough pulses was counted with the help of a pressure transmitter. From these measurements an average control value for each group was calculated. After this preliminary control test, there was given subcutaneously to each animal of each group a suspension of the active substance in 1% sodium carboxymethyl cellulose. After 30 minutes each animal was again exposed in the test chamber for 8 minutes to the aerosol of 20% citric acid and the number of cough pressure pulses recorded. The different active substances were administered in increasing doses ranging from 3 mg/kg to 100 mg/kg of body weight. Altogether eight different doses were given. The results were expressed as percent deviation from the average control value for the group on the same day, the deviation being entered in a diagram against the logarithm of the dose administered. From the resulting effectiveness curve, based on the logarithm of the dose, the coefficient of correlation and the ED50 were calculated for each active substance, by the regression analysis method of Downie and Heath (1965). The values obtained for codeine phosphate, for d-glaucine hydrobromide, for d,l-glaucine hydrobromide and for l-glaucine hydrobromide thirty minutes after administering the active substance are summarized in Table I.

[4] = system: isolated guinea pig intestines (contractions induced by electric voltages); test: Suppression of electrically induced contractions in isolated guinea pig intestines, Comparative test 4; conditions: isolated guinea pig intestine; codeine: increased doses; d-glaucine: higher concentrations than 4×10^-5; d,l-glaucine: 4×10^-5 to 6×10^-5
cough pulses [5] = test: Oral citric acid aerosol cough test in guinea pigs, 1 h (equivalent effective doses), Comparative test 6; assay type: in vivo; conditions: for Cough pulses percent of control value: 20% citric acid aerosol 8 min
[6] = system: isolated guinea pig intestines (contractions induced by electric voltages); test: Suppression of electrically induced contractions in isolated guinea pig intestines, Comparative test 4; set-up: electrically induced contractions (Table III): unit not given here
Description: In a further series of tests the effects of different doses of codeine phosphate in suppressing contractions induced in isolated guinea pig intestines by electric voltages were tested. For this purpose one electrode was immersed in the solution surrounding the intestinal preparation. The second electrode was connected to the preparation at the attachment point.

coughing centre = test: Coughing reflex by electrical stimulation of upper laryngeal nerves of anaesthetized cats (method of Domenjoz), Comparative test 5; assay type: in vivo; conditions: intravenous; for minimal effective dose: Felis catus, read-out: MED (minimal effective dose completely suppressing the coughing reflex); for minimal effective dose / Duration of cough suppression: anaesthetized cats; for Duration of cough suppression: at MED
Description: In a series of tests conducted by the method of Domenjoz, the effects of the different active substances on the coughing centre was examined by electrical stimulation of the upper laryngeal nerves of anaesthetized cats. Electrical stimulation of the nerve produces a coughing reflex and the intention is to reduce this by intravenous injection of the active substance. The minimal effective dose MED is determined by increasing the dose from 0.1 mg/kg of body weight up to 0.3 mg/kg, 1.0 mg/kg, 3.0 mg/kg and 6.0 mg/kg, until the dose is sufficient for completely suppressing the coughing reflex.
In these tests each animal was given, on the one hand, codeine and, on the other hand, at sufficient time intervals also glaucine, so that the ratio of the minimal effective doses of glaucine and codeine can be deduced.

[7] = system: smooth muscles of isolated guinea pigs intestine; test: Effect on smooth muscles of isolated guinea pig intestine in a bath, Comparative test 3; conditions: for spontaneous activity and tone, in words: molar concentrations between 1×10^-5 and 8×10^-5
Description: Experiments were conducted in vitro to determine the effects of different active substances on the smooth muscles of isolated guinea pigs intestine samples suspended in a bath. After adding to the bath different doses of the active substances, the contractive force of the muscle material was recorded.

intestinal motility = test: Intestinal motility / evacuation action of stomach-intestinal tract of mice (carbon suspension), Comparative test 2; assay type: in vivo; conditions: s.c., 2 h, control 74.3%, * = significantly different from control (p < 0.05)
Description: One of the most unpleasant side effects of anti-cough medicine containing codeine is constipation and the occurrence of intestinal spasms. A model test for determining the effects of anti-cough active substances on intestinal motility and on the evacuation action of the stomach-intestinaltract of mice was therefore made. After subcutaneous injection of the active substance, each animal was given, through a throat probe, a 10% suspension of carbon in a 5% aqueous slurry of gum arabic. Two hours later the intestine was sectioned and the distance of stomach coecum measured, and also the distance travelled by the carbon, which was expressed as percent of intestine length.
The effects of codeine phosphate, of d-glaucine hydrobromide and of l-glaucine hydrobromide on intestinal motility were determined at different doses. For each dose the average value was calculated for a sufficient number of animals.

[8] = po, peroral, read-out: LD50 peroral
[9] = sc, subcutaneous, read-out: LD50 subcutaneous

Compound: COc1cc2c(cc1OC)-c1c(OC)c(OC)cc3c1C(C2)N(C)CC3 (racemic) [d,l-glaucine embonate]
- Cough pulses during 8 minutes, percent of control value, after 1 h (cough pulses [1]): 80%
- Cough pulses during 8 minutes, percent of control value, after 3 h (cough pulses [1]): 51%
- Cough pulses during 8 minutes, percent of control value, after 5 h (cough pulses [1]): 57%
- Cough pulses during 8 minutes, percent of control value, after 24 h (cough pulses [1]): 81%
- duration of effect, in words (cough pulses [1]; guinea pigs, 378 mg/kg): considerably longer-lasting effect without any delay in the beginning of the effect

Compound: COc1cc2c(cc1OC)-c1c(OC)c(OC)cc3c1C(C2)N(C)CC3 (racemic) [d,l-glaucine hydrobromide]
- toxicity, comparison in words (mice): about equal
- LD50 [2, 8]: 686 mg/kg
- LD50 [2, 9]: 320 mg/kg
- Cough pulses during 8 minutes, percent of control value, after 1 h (cough pulses [1]; hydrobromide): 90%
- Cough pulses during 8 minutes, percent of control value, after 3 h (cough pulses [1]; hydrobromide): 47%
- Cough pulses during 8 minutes, percent of control value, after 5 h (cough pulses [1]; hydrobromide): 59%
- Cough pulses during 8 minutes, percent of control value, after 24 h (cough pulses [1]; hydrobromide): 113%
- ED50 (cough pulses [3]): 27.2 mg/kg
- ED50 value, comparison in words (cough pulses [3]; 30 min): even lower ED50 value than l-glaucine hydrobromide
- induced spontaneous activity, in words [4]: without at the same time inducing any spontaneous activity
- Cough pulses percent of control value (cough pulses [5]; 100 mg/kg): 30%
- Cough pulses percent of control value (cough pulses [5]; 200 mg/kg): 44%
- dose having about the same effect (codeine phosphate vs d,l-glaucine hydrobromide) (cough pulses [5]; guinea pigs): ~150 mg per kg of body weight
- suppression of electrically induced spasms, in words ([6]; 4×10^-5 to 6×10^-5): suppress the electrically induced spasms practically completely
- electrically induced contractions (Table III) ([6]; molar concentration 1 × 10^-5): 63
- electrically induced contractions (Table III) ([6]; molar concentration 2 × 10^-5): 48
- electrically induced contractions (Table III) ([6]; molar concentration 4 × 10^-5): 8
- electrically induced contractions (Table III) ([6]; molar concentration 4 × 10^-6): 81
- electrically induced contractions (Table III) ([6]; molar concentration 8 × 10^-6): 63
- minimal effective dose (coughing centre): 1 mg/kg
- Duration of cough suppression (coughing centre): 44 to 62 min
- duration of the effect, in words (coughing centre; at minimal dose): considerably greater for the d,l-glaucine hydrobromide than for the d-glaucine hydrobromide

Compound: COc1cc2c(cc1OC)-c1c(OC)c(OC)cc3c1C(C2)N(C)CC3 (racemic) [d,l-glaucine hydrochloride]
- Cough pulses during 8 minutes, percent of control value, after 1 h (cough pulses [1]; hydrochloride): 80%
- Cough pulses during 8 minutes, percent of control value, after 3 h (cough pulses [1]; hydrochloride): 72%
- Cough pulses during 8 minutes, percent of control value, after 5 h (cough pulses [1]; hydrochloride): 69%
- Cough pulses during 8 minutes, percent of control value, after 24 h (cough pulses [1]; hydrochloride): 102%

Compound: COc1ccc2c3c1O[C@H]1[C@@H](O)C=C[C@H]4[C@@H](C2)N(C)CC[C@@]341 [codeine, reference compound]
- contractive force of the muscle material, in words ([7]; molar concentrations between 1×10^-5 and 32×10^-5): produces contractions which depend on the dose

Compound: COc1cc2c(cc1OC)-c1c(OC)c(OC)cc3c1[C@H](C2)N(C)CC3 [d-glaucine hydrobromide, reference compound]
- Distance travelled average % (of intestine length) (intestinal motility; 10 mg/kg): 74.6%
- Distance travelled average % (of intestine length) (intestinal motility; 30 mg/kg): 80.1%
- Distance travelled average % (of intestine length) (intestinal motility; 100 mg/kg): 36.4%
- LD50 [2, 8]: 345 mg/kg
- LD50 [2, 9]: 125 mg/kg
- ED50 (cough pulses [3]): 54 mg/kg
- induced spontaneous activity, in words [4]: the increasing spontaneous activity prevents any distinguishing between direct production and electric production of the activity
- suppression of electrically induced contraction reflexes, in words ([6]; 4×10^-5): suppresses electrically induced contraction reflexes
- electrically induced contractions (Table III) ([6]; molar concentration 1 × 10^-5, hydrobromide): 77 and 95
- electrically induced contractions (Table III) ([6]; molar concentration 2 × 10^-5, hydrobromide): 74 and 79
- electrically induced contractions (Table III) ([6]; molar concentration 4 × 10^-5, hydrobromide): 44 and 36
- minimal effective dose (coughing centre): 1 mg/kg
- Duration of cough suppression (coughing centre): 5 to 39 min

Compound: COc1cc2c(cc1OC)-c1c(OC)c(OC)cc3c1[C@H](C2)N(C)CC3 [d-glaucine, reference compound]
- spontaneous activity and tone, in words [7]: dose-dependent increase of spontaneous activity and tone

Compound: COc1cc2c(cc1OC)-c1c(OC)c(OC)cc3c1[C@@H](C2)N(C)CC3 [l-glaucine]
- spasmogenic activity ([7]; in vitro, isolated guinea pig intestine): no spasmogenic activity
- spontaneous activity and tone, in words [7]: a reduction in spontaneous activity and no increase in tone

Source: US4370331A, “L-Glaucine containing composition for cough relief” (Karl O. Helm Aktiengesellschaft, priority 1977, dated 1983)
